Experimental data as given in paper PMC7413254 (Nature Communications, 2020).
Read-outs that look alike come from different tables or passages of the source.

Tests used:
PfCRT^3D7 [1] = biological target: T1, PfCRT^3D7 (Plasmodium falciparum, UniProt Q8IBZ9); test: cell-based; format: cell-based
How it was run: (§1)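 Oocytes (ten per treatment, ≥4 independent frogs/days) were preloaded by injecting VF-6 in 25 nL ND96 at pH 5.0, 5.5, 6.0 or 7.0, or Na^+-free choline buffer, then uptake run 1.5 h, 27.5 °C, ND96 pH 5.5 by default. Internal concentrations assumed ~400 nL oocyte volume.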

PfNT1 = biological target: T2, PfNT1 (Plasmodium falciparum, UniProt Q8IDM6); test: cell-based; format: cell-based; conditions: for activity at 5000 µM: total [3H]CQ transport
T2 construct: expressed in transfected cells; host or cells: Xenopus laevis oocytes (stage V-VI), cRNA-injected
T2 sequence (Q8IDM6 whole entry): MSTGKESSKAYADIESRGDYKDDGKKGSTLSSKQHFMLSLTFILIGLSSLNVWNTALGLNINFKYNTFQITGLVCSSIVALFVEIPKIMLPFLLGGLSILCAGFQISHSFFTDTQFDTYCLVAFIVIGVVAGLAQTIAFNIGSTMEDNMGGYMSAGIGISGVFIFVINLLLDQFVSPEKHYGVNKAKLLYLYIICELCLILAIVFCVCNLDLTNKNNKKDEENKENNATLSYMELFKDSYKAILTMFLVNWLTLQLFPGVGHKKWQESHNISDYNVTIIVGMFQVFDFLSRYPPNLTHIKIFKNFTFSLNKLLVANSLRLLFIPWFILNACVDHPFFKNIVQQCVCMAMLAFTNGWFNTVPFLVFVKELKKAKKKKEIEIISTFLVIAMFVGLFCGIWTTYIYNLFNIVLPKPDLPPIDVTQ
How it was run: as §1

PfCRT^Dd2 [2] = biological target: T3, PfCRT^Dd2 (Plasmodium falciparum, UniProt Q9N623, A220S/I356T/K76T/M74I/N326S/N75E/Q271E/R371I); test: cell-based; format: cell-based; conditions: […]
T3 sequence (Q9N623 whole entry A220S/I356T/K76T/M74I/N326S/N75E/Q271E/R371I): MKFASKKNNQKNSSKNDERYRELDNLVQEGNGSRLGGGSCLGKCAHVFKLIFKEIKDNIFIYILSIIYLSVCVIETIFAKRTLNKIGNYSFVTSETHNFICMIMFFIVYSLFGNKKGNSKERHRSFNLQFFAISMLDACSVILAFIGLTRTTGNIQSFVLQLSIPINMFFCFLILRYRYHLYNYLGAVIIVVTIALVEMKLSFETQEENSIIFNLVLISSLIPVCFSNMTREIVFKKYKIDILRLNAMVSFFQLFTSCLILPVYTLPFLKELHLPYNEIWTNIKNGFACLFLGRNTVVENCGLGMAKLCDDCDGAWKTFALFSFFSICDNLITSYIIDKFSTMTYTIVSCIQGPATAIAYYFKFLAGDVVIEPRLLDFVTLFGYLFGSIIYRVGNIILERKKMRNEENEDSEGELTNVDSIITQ
How it was run: as §1

PfCRT^Ecu1110 [3] = biological target: T4, PfCRT^Ecu1110 (Plasmodium falciparum, UniProt Q9N623, A220S/I356L/K76T/N326D); test: cell-based; format: cell-based; conditions: […]
T4 sequence (Q9N623 whole entry A220S/I356L/K76T/N326D): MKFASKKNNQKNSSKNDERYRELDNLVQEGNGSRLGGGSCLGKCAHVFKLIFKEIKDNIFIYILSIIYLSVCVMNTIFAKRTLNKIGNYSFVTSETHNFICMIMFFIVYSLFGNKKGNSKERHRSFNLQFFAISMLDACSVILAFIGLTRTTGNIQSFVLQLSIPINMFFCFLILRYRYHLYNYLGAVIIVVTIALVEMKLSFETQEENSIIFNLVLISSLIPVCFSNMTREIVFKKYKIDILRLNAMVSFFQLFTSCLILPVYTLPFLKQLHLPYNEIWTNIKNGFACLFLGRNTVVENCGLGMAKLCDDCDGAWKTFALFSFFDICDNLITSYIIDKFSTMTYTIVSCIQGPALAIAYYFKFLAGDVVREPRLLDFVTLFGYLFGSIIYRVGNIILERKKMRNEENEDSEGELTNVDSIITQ
How it was run: as §1

PfCRT^Dd2 [4] = biological target: T3, PfCRT^Dd2; test: [3H]CQ uptake into Xenopus oocytes, cis-inhibition by unlabelled solute; format: cell-based
How it was run: (§2)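 Transport runs from the acidic bath into the cytosol, analogous to PfCRT-mediated efflux out of the vacuole. Non-expressing oocytes act as background.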

PfCRT^Ecu1110 [5] = biological target: T4, PfCRT^Ecu1110; test: as above; format: cell-based
How it was run: as §2

PfCRT^3D7 [6] = biological target: T1, PfCRT^3D7; test: cell-based; format: cell-based; conditions: total [3H]CQ transport; for inhibition at 500 µM: [test solute] = 0.5 mM; for inhibition at 1000 µM: [test solute] = 1 mM; for inhibition at 2000 µM: [test solute] = 2 mM
How it was run: as §2

non-expressing oocytes [7] = test: cells; format: cell-based, Xenopus laevis; conditions: Xenopus laevis, total [3H]CQ transport; for inhibition at 500 µM: [test solute] = 0.5 mM; for inhibition at 1000 µM: [test solute] = 1 mM; for inhibition at 2000 µM: [test solute] = 2 mM
How it was run: as §2

PfCRT [8] = test: Test of solutes as potential co-substrates for influx of VF-6 via PfCRT into the oocyte; format: cell-based, Plasmodium falciparum; set-up: key: X: Compounds that have been tested as potential co-substrates but are not required for influx of VF-6 via PfCRT into the oocyte; conditions: X = tested
non-expressing oocytes [9] = format: cell-based, Xenopus laevis; conditions: total [3H]CQ transport; for Uptake of [3H]CQ (% non-expressing oocyte control), trans-stimulation: non-expressing oocytes, normalised to the oocyte type control; for Uptake of [3H]CQ (% PfCRTDd2 control), trans-stimulation, non-expressing oocytes: mean ± SEM, SEM
How it was run: as §1

PfCRT [10] = test: Potential co-substrates tested for influx of VF-6 via PfCRT into the oocyte; format: cell-based, Plasmodium falciparum; set-up: key: X: Compounds that have been tested as potential co-substrates but are not required for influx of VF-6 via PfCRT into the oocyte
[11] = read-out: PfCRT-mediated [3H]CQ transport, cis-inhibition (% PfCRTDd2 control)
[12] = read-out: Uptake of [3H]CQ (% PfCRTDd2 control), cis-inhibition, PfCRTDd2, SEM
[13] = read-out: PfCRT-mediated [3H]CQ transport, cis-inhibition (% PfCRTEcu1110 control)
[14] = read-out: Uptake of [3H]CQ (% PfCRTDd2 control), cis-inhibition, PfCRTEcu1110, SEM
[15] = read-out: Uptake of [3H]CQ (% PfCRTEcu1110 control), cis-inhibition
[16] = read-out: [3H]CQ transport (% PfCRTEcu1110 control), cis-inhibition, PfCRTEcu1110, SEM
[17] = PfCRT3D7 oocytes, normalised to the oocyte type control, read-out: Uptake of [3H]CQ (% PfCRT3D7 control), cis-inhibition
[18] = mean ± SEM, SEM, read-out: Uptake of [3H]CQ (% PfCRTDd2 control), cis-inhibition, PfCRT3D7
[19] = Oocyte, mean ± SEM, SEM, read-out: Uptake of [3H]CQ (% PfCRTDd2 control), cis-inhibition, non-expressing oocytes
[20] = non-expressing oocytes, normalised to the oocyte type control, read-out: Uptake of [3H]CQ (% non-expressing oocyte control), cis-inhibition

T1 sequence (Q8IBZ9 59-398): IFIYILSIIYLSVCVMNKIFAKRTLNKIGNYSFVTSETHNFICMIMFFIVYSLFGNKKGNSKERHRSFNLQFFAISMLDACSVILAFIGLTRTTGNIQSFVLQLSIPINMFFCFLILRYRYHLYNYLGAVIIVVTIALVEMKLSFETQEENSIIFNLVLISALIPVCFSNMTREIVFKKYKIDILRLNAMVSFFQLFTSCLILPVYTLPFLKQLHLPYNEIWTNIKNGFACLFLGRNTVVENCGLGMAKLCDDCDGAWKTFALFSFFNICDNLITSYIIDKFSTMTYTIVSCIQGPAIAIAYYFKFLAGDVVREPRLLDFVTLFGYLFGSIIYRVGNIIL

## N[C@@H](Cc1c[nH]cn1)C(=O)O [L-histidine]
PfCRT^3D7 [1]; PfCRT3D7 oocytes, [test solute]i = 5 mM, total [3H]CQ transport, normalised to the oocyte type control, read-out: Uptake of [3H]CQ (% PfCRT3D7 control), trans-stimulation
  activity at 5000 µM: 97 ± 3.6%
PfCRT^3D7 [1]; SEM
  [3H]CQ transport (% PfCRT3D7 control), trans-stimulation, PfCRT3D7: 0.2 ± 0.01 % PfCRT3D7 control
PfCRT^3D7 [1]; [test solute]i = 5 mM (intracellular), PfCRT3D7 oocytes, normalised to oocyte type control, read-out: PfCRT-mediated [3H]CQ transport, trans-stimulation (% PfCRT3D7 control)
  activity at 5000 µM: 95 ± 2.9%
PfCRT^3D7 [1]; SEM, read-out: Uptake of [3H]CQ (% PfCRTDd2 control), trans-stimulation, PfCRT3D7
  activity at 45000 µM: 3.3 ± 0.02%
PfCRT^3D7 [1]; read-out: PfCRT-mediated [3H]CQ transport, trans-stimulation (% PfCRT3D7 control)
  activity at 45000 µM: 97 ± 2.2%
PfCRT^3D7 [1]; read-out: Uptake of [3H]CQ (% PfCRT3D7 control), trans-stimulation
  activity at 45000 µM: 99 ± 3.7%
PfCRT^3D7 [1]; total [3H]CQ transport, [test solute]i = 5 mM (intracellular), mean ± SEM, SEM, read-out: Uptake of [3H]CQ (% PfCRTDd2 control), trans-stimulation, PfCRT3D7
  activity at 5000 µM: 3.2 ± 0.09%
PfNT1; PfNT1 oocytes, [test solute]i = 5 mM, normalised to the oocyte type control, read-out: Uptake of [3H]CQ (% PfNT1 control), trans-stimulation
  activity at 5000 µM: 99 ± 3.3%
PfNT1; SEM, read-out: Uptake of [3H]CQ (% PfCRTDd2 control), trans-stimulation, PfNT1
  activity at 45000 µM: 2.6 ± 0.04%
PfNT1; read-out: Uptake of [3H]CQ (% PfNT1 control), trans-stimulation
  activity at 45000 µM: 99 ± 4.2%
PfNT1; [test solute]i = 5 mM (intracellular), mean ± SEM, SEM, read-out: Uptake of [3H]CQ (% PfCRTDd2 control), trans-stimulation, PfNT1
  activity at 5000 µM: 2.2 ± 0.09%
PfCRT^Dd2 [2]; pH 5.5, read-out: Uptake of [3H]CQ (% PfCRTDd2 control), trans-stimulation, PfCRTDd2, total [3H]CQ transport, [test solute]i = 5 mM (intracellular), mean ± SEM, SEM
  activity at 5000 µM: 101 ± 2.2%
PfCRT^Dd2 [2]; pH 5.5, read-out: Uptake of [3H]CQ (% PfCRTDd2 control), trans-stimulation, PfCRTDd2 oocytes, [test solute]i = 5 mM, total [3H]CQ transport, normalised to the oocyte type control
  activity at 5000 µM: 101 ± 2.2%
PfCRT^Dd2 [2]; pH 5.5, read-out: Uptake of [3H]CQ (% PfCRTDd2 control), trans-stimulation, PfCRTDd2 oocytes, [test solute]i = 45 mM (30 mM for some solutes due to solubility), total [3H]CQ transport, normalised to the oocyte type control
  activity at 45000 µM: 97 ± 3.2%
PfCRT^Ecu1110 [3]; pH 5.5, read-out: Uptake of [3H]CQ (% PfCRTEcu1110 control), trans-stimulation, PfCRTEcu1110 oocytes, [test solute]i = 5 mM, total [3H]CQ transport, normalised to the oocyte type control
  activity at 5000 µM: 100 ± 3.6%
PfCRT^Ecu1110 [3]; pH 5.5, read-out: Uptake of [3H]CQ (% PfCRTEcu1110 control), trans-stimulation, PfCRTEcu1110 oocytes, [test solute]i = 45 mM (30 mM for some solutes due to solubility), total [3H]CQ transport, normalised to the oocyte type control
  activity at 45000 µM: 99 ± 3%
PfCRT^Ecu1110 [3]; read-out: Uptake of [3H]CQ (% PfCRTDd2 control), trans-stimulation, PfCRTEcu1110, total [3H]CQ transport, [test solute]i = 5 mM (intracellular), mean ± SEM, SEM
  activity at 5000 µM: 36 ± 1.3%
PfCRT^Ecu1110 [3]; read-out: Uptake of [3H]CQ (% PfCRTDd2 control), trans-stimulation, PfCRTEcu1110, total [3H]CQ transport, [test solute]i = 45 mM (intracellular; 30 mM for some solutes due to solubility), mean ± SEM, SEM
  activity at 45000 µM: 35 ± 2.5%
PfCRT^Dd2 [4]; [11]
  inhibition at 500 µM: 96 ± 3.6%
  inhibition at 1000 µM: 97 ± 4.1%
PfCRT^Dd2 [4]; [12]
  inhibition at 500 µM: 98 ± 9.7%
  inhibition at 1000 µM: 99 ± 4.2%
  inhibition at 2000 µM: 100 ± 2.2%
PfCRT^Ecu1110 [5]; [13]
  inhibition at 500 µM: 95 ± 1.5%
  inhibition at 1000 µM: 94 ± 3.2%
  inhibition at 2000 µM: 98 ± 2.6%
PfCRT^Ecu1110 [5]; [14]
  inhibition at 500 µM: 32 ± 1.4%
  inhibition at 1000 µM: 31 ± 2.1%
  inhibition at 2000 µM: 33 ± 1%
PfCRT^Ecu1110 [5]; [15]
  inhibition at 500 µM: 97 ± 5.6%
  inhibition at 1000 µM: 96 ± 4.6%
  inhibition at 2000 µM: 100 ± 8.2%
PfCRT^Ecu1110 [5]; [16]
  inhibition at 500 µM: 29 ± 0.4%
  inhibition at 1000 µM: 28 ± 0.2%
  inhibition at 2000 µM: 30 ± 1.3%
PfCRT^3D7 [6]; [17]
  inhibition at 500 µM: 99 ± 5.2%
  inhibition at 1000 µM: 99 ± 3.6%
  inhibition at 2000 µM: 101 ± 4.7%
PfCRT^3D7 [6]; [18]
  inhibition at 500 µM: 3.7 ± 0.02%
  inhibition at 1000 µM: 2.8 ± 0.02%
  inhibition at 2000 µM: 2.8 ± 0.03%
non-expressing oocytes [7]; [19]
  inhibition at 500 µM: 2.4 ± 0.06%
  inhibition at 1000 µM: 2.8 ± 0.07%
  inhibition at 2000 µM: 2.6 ± 0.05%
non-expressing oocytes [7]; [20]
  inhibition at 500 µM: 96 ± 4.3%
  inhibition at 1000 µM: 99 ± 3.7%
  inhibition at 2000 µM: 99 ± 4.7%
PfCRT [8]
  Tested as potential co-substrate but not required for influx of VF-6 via PfCRT into the oocyte: X
non-expressing oocytes [9]; [test solute]i = 5 mM
  Uptake of [3H]CQ (% non-expressing oocyte control), trans-stimulation: 99 ± 3.6 % non-expressing oocyte control
non-expressing oocytes [9]; [test solute]i = 45 mM (30 mM for some solutes due to solubility)
  Uptake of [3H]CQ (% non-expressing oocyte control), trans-stimulation: 100 ± 4.8 % non-expressing oocyte control
non-expressing oocytes [9]; [test solute]i = 5 mM (intracellular)
  Uptake of [3H]CQ (% PfCRTDd2 control), trans-stimulation, non-expressing oocytes: 3.0 ± 0.06 % PfCRTDd2 control
non-expressing oocytes [9]; [test solute]i = 45 mM (intracellular; 30 mM for some solutes due to solubility)
  Uptake of [3H]CQ (% PfCRTDd2 control), trans-stimulation, non-expressing oocytes: 2.5 ± 0.01 % PfCRTDd2 control
PfCRT [10]
  Tested as potential co-substrate but not required for influx of VF-6 via PfCRT into the oocyte: X
